Test results as given in US12174172B2, “Method for evaluating the efficacy of a composition in reducing the effects of cancer therapeutics on skin” (Johnson & Johnson Consumer Inc., priority 2019, dated 2024).
“Also recorded” adds a separate entry of the source. Marks after values point to notes of the source that are not given here.

Tests used:
[1] = most frequent cutaneous adverse reaction reported by the FDA Adverse Event Reporting System; cited from earlier work
[2] = test system: Human epidermal keratinocytes cells (HPEKs), 3D micro-epidermis; assay: 3D micro-epidermis model (EpiScreen): epidermis size, toxicity, dose response, classification; type: cell-based;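 also: keratinocytes on micropatterned discs in high-calcium medium, drug exposure for three days, then fixation and confocal high-content imaging of actin, nuclei and a marker, vehicle DMSO-matched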
[3] = test system: filaggrin (FLG); assay: 3D micro-epidermis model (EpiScreen): filaggrin immunostaining; type: cell-based, human;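 also: human primary epidermal keratinocytes differentiated in high calcium into 3D micro-epidermises, compound-treated for three days, imaged by confocal high-content microscopy, filaggrin staining intensity quantified within actin-segmented structures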
[4] = test system: Keratinocytes; assay: WST-8 viability and proliferation assay; type: cell-based, human; conditions: keratinocytes exposed for 24 h, relative to vehicle (FIG. 5a)
Text: The Water-Soluble Tetrazolium Salts (WST-8) Colorimetric Cell Proliferation Kit (Promokine, Heidelberg, Germany) provides a rapid and sensitive way to quantify proliferation and cell viability. Cell proliferation causes an increase in the amount of formazan dye formed that can be quantified by measuring the absorbance of the dye solution at […] using a microtiter plate reader (Perkin Elmer EnVision 2103 Multilabel Reader, Waltham, MA, USA). Cellular proliferation induces an increase in the activity of mitochondrial dehydrogenases, which cleaves the tetrazolium salt […] into formazan. 15,000 Keratinocytes per well were seeded on 96-well plate, once confluence reach, drug concentration used were +/−½ log of the plasmatic concentration. 10 μl of Colorimetric Cell Viability Kit is added and completed with 360 μl of culture media, results were read after 4 h at 450 nm to determine cell viability. Results were obtained with 6 donors of keratinocytes in 2 experiments

[5] = test system: SkinEthic Reconstructed Human Epidermis (RHE); assay: Skin barrier function: trans-epidermal water loss (TEWL) on reconstructed human epidermis; type: cell-based; conditions: day 7; SDS 0.5% topical; afatinib 100 nM in the media
Procedure: The effect of drugs on the skin barrier function was assessed by measuring trans-epidermal water loss (TEWL) rates on SkinEthicTM Reconstructed Human Epidermis (RHE) model (Episkin, Lyon, France) using Tewitro® TW 24 (Courage+Khazaka electronic GmbH, Köln, Germany). This instrument allows 24 simultaneous measurements on RHE. TEWL was analyzed at 33° C. in an incubator. […] Petrolatum, a highly hydrophobic hydrocarbon, water-repelling and insoluble in water was used to block water evaporation at the RHE surface (negative control). […] DMSO was used in the same proportion in the vehicle. SkinEthicTM RHE (Episkin, Lyon, France), is an in vitro reconstructed human epidermis from normal human keratinocytes cultured on an inert polycarbonate filter at the air-liquid interface, in a chemically defined medium. This model exists at different stages of maturity. This model is histologically similar to in vivo human epidermis. See […].com/SkinEthic%20RHE. The Tewitro® TW 24 is a device that measures water evaporation from cultured tissue sets (wells in a plate with medium) in up to 24 wells simultaneously. See https://www.courage-[…].

[6] = test system: desmoglein-1 (DSG1); assay: 3D micro-epidermis model (EpiScreen): desmoglein-1 immunostaining; type: cell-based, human
Procedure: To assess the effects of such therapy molecules on the epidermis, keratinocytes were grown in the presence of kinase inhibitors during 3 days with high calcium concentration to induce keratinocyte differentiation and generate a 3D-stratified differentiated epidermis. Drug impact on the epidermis development was assessed via different keratinocyte markers including: • Ki-67, an universally expressed protein among proliferating cells and absent in the quiescent cells; • Filaggrin, a filament-associated protein that binds to keratin fibers and is a marker of terminal differentiation; • Desmoglein-1, a component of desmosomes and differentiation marker expressed in all epidermal layer above the basal layer; and • Involucrin, an early differentiation marker expressed in the spinous and granular layers and a protein precursor of the epidermal cornified envelope.
Human epidermal keratinocytes cells (HPEKs) from a juvenile donor (CellnTec, Switzerland) are cultured in flasks in proliferation medium. Keratinocytes are seeded at passage 6 into EpiScreen™ (Abzena, Cambridge, UK) plates containing collagen 1 coated disc micropatterns (CYTOO, Grenoble, France). Four hours later, unattached cells are washed off and a high calcium medium is added to induce keratinocytes differentiation. The day after, keratinocytes are treated with screening compounds, and Trichostatin A is added at 0.3 μM as an internal positive control. After three days of treatment, micro-epidermises are fixed with a formalin solution 10% for 30 minutes, then permeabilized with 0.1% Triton. Several immunostainings are performed: actin (Acti-Stain 555, PHDH1, Cytoskeleton), nuclei (Hoechst, H3570, Invitrogen), and one biomarker of interest per well either anti-involucrin (HPA055211, Sigma), anti-filaggrin (HPA030189, Sigma) or anti-desmoglein-1 (HPA022128, Sigma). Antibodies are added overnight at 4° C. before staining with secondary antibody, anti-rabbit 488 (711-545-152, Jackson) for 2 hours at room temperature.
Images of each well are acquired with the Operetta HCS platform (Perkin Elmer, Waltham, MA, USA) using a ×10 objective in confocal mode in eight z-planes from 2 μm to 44 μm in steps of 6 μm in each of the 3 channels: actin, nuclei, and one biomarker of interest. The first step of the image analysis consists in detecting micro-epidermis structures on the first z-plane by segmenting the actin staining. Micro-epidermis structures are validated based on several area and roundness min and max criteria. Then, the area of each biomarker staining is measured inside the valid micro-epidermis masks through each z-plane. For all homogeneous biomarker staining, their intensity through the different planes is measured.
The actin network of each micro-epidermis is analyzed in each z-plane in order to determine the average 3D structure edges. The biomarker intensity is measured in each z-plane for each structure, and then averaged with the other results generated in the same well. Based on the data generated in the two previous steps, an average 3D reconstruction image is generated. It consists of a meshwork that delimits the structure edges, and a color scaled volume that corresponds to the biomarkers distribution and expression.
The effect of 8 oncology molecules, selected from first generation EGFRi and pan-kinase inhibitors which mostly target VEGFR and second and third generation therapies targeting main mutations relating to first generation treatment resistance, were assessed in vitro using a 3D micro-epidermis model. The drug incubation concentrations (3, 10, 30, 100 nM) were selected to reflect the clinically relevant (unbound) drug exposures (Table 2). The drug impact was assessed by analysis of tissue size and keratinocyte proliferation using Ki-67 staining and keratinocyte differentiation using filaggrin, desmoglein-1 and involucrin staining. […]

[7] = cited from earlier work

CN(C)C/C=C/C(=O)Nc1cc2c(Nc3ccc(F)c(Cl)c3)ncnc2cc1O[C@H]1CCOC1 [Afatinib]
Major Skin Effect [1]: Rash | Toxicity at 1 μM ([2]; 1 μM, micro-epidermis): Yes | effect on desmoglein-1, involucrin and filaggrin expression (dose dependence) ([2]; 3, 10, 30 nM): increases; also recorded: dose-dependent manner | Epidermis size ([2]; Table 1 summary of drug effect on epidermis): Decreased | Classification ([2]; Table 1 summary, pro-differentiation / pro-proliferation): Pro-differentiation | Epidermis size ([2]; Table 3, 30 nM (EGFRi) or 100 nM (VEGFRi), 3 days, vs untreated control, superscript = significance footnote): Decreased^2 | Classification ([2]; Table 3, pro-proliferation or pro-differentiation): Pro- | Dose in response ([2]; Table 3, variation of protein expression at 3, 10, 30 nM (EGFRi) or 3, 10, 30, 100 nM (VEGFRi), markers in brackets): Yes | toxicity at higher drug concentration ([2]; above 1 μM, micro-epidermis): toxic leading to epidermal necrosis | micro-epidermis size / epidermal volume ([2]; concentration (afatinib 3-30 nM; pan-kinase inhibitors up to 100 nM)): significantly decreased; also recorded: significantly reduced | Dose/response ([2]; supplementary table, per run (1st or 2nd Run), markers in brackets): Yes (DSG, IVL, | FLG 3 nM ([3]; 3 nM, supplementary data): 4% | FLG 30 nM ([3]; 30 nM, supplementary data): 19% | activation at 0.01 µM ([3]; Homo sapiens, 72 h, 10 nM, supplementary data, two runs, read-out: FLG 10 nM): 12% | FLG expression ([3]; Table 1 summary): Increased | filaggrin expression ([3]; concentration (afatinib 10 and 30 nM; pan-kinase inhibitors 100 nM)): significantly increased; also recorded: increased in a dose-dependent manner | cell viability [4]: decreases; also recorded: significant effect | increase of the TEWL rate [5]: no significant change | DSG 3 nM ([6]; 3 nM, supplementary data): 38% | DSG 30 nM ([6]; 30 nM, supplementary data): 87% | activation at 0.01 µM ([6]; Homo sapiens, 72 h, 10 nM, supplementary data, read-out: DSG 10 nM): 67% | DSG-1 expression ([6]; Table 1 summary): Increased | desmoglein-1 expression ([6]; concentration (afatinib 3, 10, 30 nM; pan-kinase inhibitors 100 nM)): significantly increased; also recorded: increased in a dose-dependent manner | Cmax ([7]; maximal plasma concentration after a single daily-recommended dose, human): 32 nM | Unbound concentration ([7]; unbound plasma concentration, identified or calculated from Cmax and unbound fraction): 1.6 nM | Unbound fraction ([7]; unbound to plasma protein): 5%*
